This is an account of results in article PMC12040169 (PLOS Biology, 2025).

One data set in a line: in vitro. The conditions noted are these: human, hela cells, % viability.
In the case of `O=C(CCN1CCN(Cc2ccccc2)CC1)Nc1ccc(F)cc1` [CBK264261], the viability (usually a read-out of living cells in per cent, often relative to untreated cells) at 28.5 h, 10 µM came to 77%.

Consider `CCOC(=O)c1c(NC(=O)C2CC(Cl)=CCC2C(=O)O)sc2c1CCCCC2` (stereo not drawn) [CBK264263], for which the viability at 28.5 h, 10 µM is 90.2%.

`C(=C\CSC1=NCCN1)/CSC1=NCCN1` [CBK264266]: the viability at 28.5 h, 10 µM turned out to be 107%.

As for `Cc1ccc(OCC(=O)N2CCN(S(=O)(=O)c3ccc([N+](=O)[O-])cc3)CC2)cc1` [CBK264267], the viability at 28.5 h, 10 µM is 103%.

Consider `COc1cc(CN2CCN(S(=O)(=O)c3ccc(F)cc3)CC2)cc(OC)c1O` [CBK264269G], for which the viability at 28.5 h, 10 µM was found to be 103%.

For `CCC(C)N1CCN(S(=O)(=O)c2ccccc2[N+](=O)[O-])CC1` (stereo not drawn) [CBK264270G], the viability at 28.5 h, 10 µM was found to be 97.2%.

On to `CC(=O)Nc1ccc(S(=O)(=O)N2CCN(S(=O)(=O)c3ccc(C)cc3)CC2)cc1` [CBK264276], for which the viability at 28.5 h, 10 µM worked out at 101%.

In the case of `CC(C)COc1ccc(-c2nn(-c3ccccc3)cc2CSC(=N)N)cc1` [CBK264278C], the viability at 28.5 h, 10 µM amounted to 0.298%.

Turning to `CCS(=O)(=O)N1CCN(Cc2ccccc2OC)CC1` [CBK264280G], the viability at 28.5 h, 10 µM is 92.7%.

Take `CC(OC(=O)c1ccc(O)cc1)C(=O)Nc1ccc(Cl)c(Cl)c1` (stereo not drawn) [CBK264281]: the viability at 28.5 h, 10 µM was determined as 96.4%.

With `CCOC(=O)C1CCCN(CCC(=O)Nc2cc(C)ccc2C)C1` (stereo not drawn) [CBK264287C], the viability at 28.5 h, 10 µM stood at 95.7%.

For the molecule `CCCS(=O)(=O)N1CCN(C(=O)COc2ccc3ccccc3c2)CC1` [CBK264290], the viability at 28.5 h, 10 µM came out at 95.4%.

`COc1ccc(NC(=S)NCCCN(C)C)cc1` [CBK264292]: the viability at 28.5 h, 10 µM stood at 96.2%.

On to `O=C(/C=C/c1ccc(Cl)cc1Cl)NCCNc1c(Cl)cccc1[N+](=O)[O-]` [CBK264295], for which the viability at 28.5 h, 10 µM came to 110%.

`O=[N+]([O-])c1ccccc1S(=O)(=O)N1CCN(S(=O)(=O)c2ccc3ccccc3c2)CC1` [CBK264296]: the viability at 28.5 h, 10 µM was found to be 107%.

As for `O=C(c1cccnc1)N1CCN(S(=O)(=O)c2ccc([N+](=O)[O-])cc2)CC1` [CBK264300], the viability at 28.5 h, 10 µM was found to be 92.5%.

For the molecule `Cc1ccc(C(=O)C(C)OC(=O)c2ccc(NC(=O)c3ccccc3)cc2)cc1` (stereo not drawn) [CBK264302], the viability at 28.5 h, 10 µM worked out at 100%.

Regarding `COc1ccc(C2NCCc3c2[nH]c2ccccc32)cc1CSc1nc2ccccc2s1` (stereo not drawn) [CBK264303C], the viability at 28.5 h, 10 µM was 96.8%.

In the case of `O=C(CSc1ccc(Cl)cc1)OCC(=O)c1ccccc1` [CBK264306], the viability at 28.5 h, 10 µM came to 106%.

As to `O=C(O)CCC(C(=O)O)N1C(=O)c2c(Cl)c(Cl)c(Cl)c(Cl)c2C1=O` (stereo not drawn) [CBK264308], the viability at 28.5 h, 10 µM was 102%.

On to `O=[N+]([O-])c1ccc(S(=O)(=O)N2CCN(S(=O)(=O)c3ccc(Cl)cc3)CC2)cc1` [CBK264312], for which the viability at 28.5 h, 10 µM is 118%.

As to `CC(=O)Nc1ccc(S(=O)(=O)N2CCN(S(=O)(=O)c3ccccc3[N+](=O)[O-])CC2)cc1` [CBK264314], the viability at 28.5 h, 10 µM turned out to be 104%.

For `N/C(Cc1ccc(Cl)cc1Cl)=N\OC(=O)c1cccc([N+](=O)[O-])c1` [CBK264317], the viability at 28.5 h, 10 µM stood at 91%.

Consider `O=C(NCc1ccncc1)Nc1ccc([N+](=O)[O-])cc1` [CBK264319], for which the viability at 28.5 h, 10 µM turned out to be 110%.

With `Cc1cc(OCC(=O)Nc2nc[nH]n2)ccc1Cl` [CBK264321], the viability at 28.5 h, 10 µM is 117%.

As for `Cc1cc(OCC(=O)O/N=C(\N)Cc2ccc([N+](=O)[O-])cc2)ccc1Cl` [CBK264322], the viability at 28.5 h, 10 µM was determined as 98.2%.

For `O=C(C1CCN(Cc2ccc(F)cc2)CC1)N1CCN(C/C=C/c2ccccc2)CC1` [CBK264325G], the viability at 28.5 h, 10 µM was 96.5%.

In the case of `C/C(=C\c1ccccc1)CN1CCC(C(=O)N2CCN(Cc3ccc4c(c3)OCO4)CC2)CC1` [CBK264327], the viability at 28.5 h, 10 µM came out at 94.1%.

Regarding `O=C(/C=C/c1ccccc1)Oc1cccc(NC(=O)C2CC(=O)N(c3ccccc3)C2)c1` (stereo not drawn) [CBK264330], the viability at 28.5 h, 10 µM stood at 109%.

As to `CC1=CC(c2ccc(Cl)cc2)n2nc(NC(=O)CCC(=O)O)nc2N1` (stereo not drawn) [CBK264331], the viability at 28.5 h, 10 µM is 100%.

For `OC(CN1CCN(c2cccc(Cl)c2)CC1)Cn1c2ccccc2c2ccccc21` (stereo not drawn) [CBK264333], the viability at 28.5 h, 10 µM was found to be 98.2%.

Turning to `O=C(O)CNS(=O)(=O)c1ccc2nc(O)c(O)nc2c1` [CBK264334], the viability at 28.5 h, 10 µM is 94.4%.

As to `COc1ccc(C(=O)NCCc2ccc(S(N)(=O)=O)cc2)cc1[N+](=O)[O-]` [CBK264335], the viability at 28.5 h, 10 µM was 99.8%.

Take `Cc1ccc(NC(=S)NC(=O)Cc2ccccc2)c(O)c1` [CBK264337]: the viability at 28.5 h, 10 µM is 106%.

Consider `NS(=O)(=O)c1ccc(NC(=O)c2ccc3ccccc3c2)cc1` [CBK264338], for which the viability at 28.5 h, 10 µM came to 112%.

Turning to `CC(C)(C)c1ccc(Oc2ccc(NC(=O)CCCC(=O)O)cc2)cc1` [CBK264339], the viability at 28.5 h, 10 µM came out at 103%.

Regarding `COC(=O)c1ccc(N2CCN(C)CC2)c([N+](=O)[O-])c1` [CBK264341], the viability at 28.5 h, 10 µM is 99.4%.

On to `O=C(NC(=S)Nc1ccc2oc(-c3ccncc3)nc2c1)c1cc(Br)ccc1Cl` [CBK264343], for which the viability at 28.5 h, 10 µM is 87.8%.

With `O=C(/C=C/c1ccco1)NC(=S)Nc1ccc(O)c(-c2nc3ccccc3s2)c1` [CBK264344], the viability at 28.5 h, 10 µM came to 85.7%.

`O=C(CSc1nnc(-c2ccncc2)[nH]1)c1ccc(O)c(O)c1` [CBK264346]: the viability at 28.5 h, 10 µM was determined as 86.6%.

With `CCC(C)c1ccc(NC(=O)CSc2nc3cccnc3[nH]2)cc1` (stereo not drawn) [CBK264349], the viability at 28.5 h, 10 µM is 86.9%.

In the case of `O=CN1CCN(S(=O)(=O)c2ccc3c(c2)Cc2cc(S(=O)(=O)N4CCN(C=O)CC4)ccc2-3)CC1` [CBK264351], the viability at 28.5 h, 10 µM was found to be 98.8%.

As to `O=C(CSc1nnc(-c2ccncc2)[nH]1)c1ccc(O)cc1O` [CBK264353], the viability at 28.5 h, 10 µM came out at 102%.

Regarding `NS(=O)(=O)c1ccc(CNC(=O)C(Sc2ccccc2)c2ccccc2)cc1` (stereo not drawn) [CBK264355], the viability at 28.5 h, 10 µM was 91.5%.

For `Cn1c(SCC(=O)c2ccccc2)nnc1-c1ccc(NC(=O)c2ccccc2Cl)cc1` [CBK264357], the viability at 28.5 h, 10 µM worked out at 95%.

Regarding `Cc1cccc(NC(=O)C2CC(=O)N=C(Nc3nc4ccccc4s3)N2)c1` (stereo not drawn) [CBK264362], the viability at 28.5 h, 10 µM was 108%.

For `CN(CC(=O)OCC(=O)c1ccccc1)S(=O)(=O)c1ccc(Cl)cc1` [CBK264363], the viability at 28.5 h, 10 µM came to 105%.

With `CN(C)S(=O)(=O)NCc1ccc2c(c1)OCO2` [CBK264364], the viability at 28.5 h, 10 µM is 108%.

In the case of `Cc1ccc(C(=O)/C=C(\Nc2cccc(C(F)(F)F)c2)C(=O)O)cc1` [CBK264366], the viability at 28.5 h, 10 µM amounted to 101%.

With `NS(=O)(=O)c1ccc(CCNS(=O)(=O)c2ccccc2[N+](=O)[O-])cc1` [CBK264369], the viability at 28.5 h, 10 µM worked out at 111%.

As to `Cc1ccc2nc(SCc3cccc([N+](=O)[O-])c3)nc(C)c2c1` [CBK264370], the viability at 28.5 h, 10 µM was found to be 106%.

Consider `O=C(/C=C/c1ccco1)NC(=S)Nc1ccccc1[N+](=O)[O-]` [CBK264375], for which the viability at 28.5 h, 10 µM is 117%.

On to `O=C(/C=C/c1cccc([N+](=O)[O-])c1)NC(=S)Nc1ccc(-c2nc3ccccc3[nH]2)cc1` [CBK264376], for which the viability at 28.5 h, 10 µM was 102%.

As to `CS(=O)(=O)N1CCN(CC(O)Cn2c3ccc(Cl)cc3c3cc(Cl)ccc32)CC1` (stereo not drawn) [CBK264381], the viability at 28.5 h, 10 µM amounted to 94%.

Take `CN(C)S(=O)(=O)Nc1ccccc1C(N)=O` [CBK264382]: the viability at 28.5 h, 10 µM stood at 111%.

Regarding `Cc1ccc(C(=O)/C=C\Nc2ccc(S(=O)(=O)Nc3cc(C)nc(C)n3)cc2)cc1` [CBK264384], the viability at 28.5 h, 10 µM was determined as 124%.

In the case of `CCc1ccc(O)c(NC(=S)NC(=O)c2cccc3c(Br)cccc23)c1` [CBK264385], the viability at 28.5 h, 10 µM stood at 111%.

`COc1ccc(C(=O)/C=C(\Nc2cccc(C(F)(F)F)c2)C(=O)O)cc1` [CBK264387]: the viability at 28.5 h, 10 µM came out at 107%.

As to `O=C(CSc1nnc(-c2ccco2)[nH]1)c1ccc(O)cc1O` [CBK264392], the viability at 28.5 h, 10 µM was determined as 108%.

For the molecule `COC(=O)C1CCN(S(=O)(=O)c2ccccc2[N+](=O)[O-])CC1` [CBK264393], the viability at 28.5 h, 10 µM was 115%.

Regarding `NS(=O)(=O)c1ccc(CCNC(=O)c2ccc(Cl)c([N+](=O)[O-])c2)cc1` [CBK264395], the viability at 28.5 h, 10 µM worked out at 94.8%.

Regarding `CCOC(=O)c1ccc(NC(=O)C2CC(=O)NC(Nc3nc4ccccc4s3)=N2)cc1` (stereo not drawn) [CBK264396], the viability at 28.5 h, 10 µM is 100%.

Turning to `CC(CC(=O)O)CC(=O)NNc1ncc(Cl)cc1Cl` (stereo not drawn) [CBK264398], the viability at 28.5 h, 10 µM came to 102%.

On to `CC(C)(C)c1ccc(O)c(NC(=S)NC(=O)c2ccccc2I)c1` [CBK264399], for which the viability at 28.5 h, 10 µM came to 114%.

For `O=c1/c(=C/c2cccnc2)sc2n1CN(c1cccc([N+](=O)[O-])c1)CN=2` [CBK264401], the viability at 28.5 h, 10 µM amounted to 76.9%.

Regarding `Cc1ccc(/C=C/C(=O)O)cc1S(=O)(=O)NCCO` [CBK264404], the viability at 28.5 h, 10 µM was 93.2%.

Regarding `O=[N+]([O-])c1ccccc1/C=C\C=N\n1c(S)nnc1-c1ccc(Cl)cc1Cl` [CBK264405], the viability at 28.5 h, 10 µM was 95%.

With `Cc1ccc(/C=C/C(=O)O)cc1S(=O)(=O)NC1CCS(=O)(=O)C1` (stereo not drawn) [CBK264409], the viability at 28.5 h, 10 µM amounted to 96.1%.

Regarding `COc1cccc(C(=O)Nc2ccc(O)c(C)c2)c1` [CBK264413], the viability at 28.5 h, 10 µM was 88.1%.

As for `O=S(=O)(NCCc1nc2ccccc2[nH]1)c1ccc(Cl)c(Cl)c1` [CBK264416], the viability at 28.5 h, 10 µM was 93.5%.

With `O=[N+]([O-])c1ccc(N2CCN(S(=O)(=O)c3ccc4ccccc4c3)CC2)cc1NCc1ccco1` [CBK264417], the viability at 28.5 h, 10 µM turned out to be 108%.

For `O=C(O)COc1ccccc1/C=N/n1c(S)nnc1-c1ccc(Cl)cc1Cl` [CBK264418], the viability at 28.5 h, 10 µM is 89.5%.

The same data set, now with this note: human, hela cells, % viability, bulk resorufin, single well.
Take `O=C1NC(=S)N(c2ccccc2)C(=O)/C1=C\c1ccc(OCc2ccccc2)c(C(=O)O)c1` [CBK264265]: the viability at 28.5 h, 10 µM worked out at 99.1%.

In the case of `Cc1cc(/C=C2\C(=O)NC(=O)N(C)C2=O)c(C)n1-c1ccc(Oc2ccc([N+](=O)[O-])cn2)cc1` [CBK264294], the viability at 28.5 h, 10 µM is 100%.

As to `CN1CCN(c2ccc(C=C3C(=O)NC(=S)NC3=O)o2)CC1` [CBK264367], the viability at 28.5 h, 10 µM stood at 98.6%.
